# Measurements published in patent US8383656B2, “Thiazolidinedione energy restriction-mimetic agents” (The Ohio State University Research Foundation, priority 2009, dated 2013).
# “Also recorded” adds a separate entry of the source. Where two headings read alike, the source gives them in different places.
# What was measured:
# [1] = test system: human tumor cell lines of the cancer screening panel; assay: NCI60 cell line screening; assay type: cell-based; details: 48 h, SRB; variety of cancer cell types
# Description: The NCI60 screening method was carried out using the following methodology. The human tumor cell lines of the cancer screening panel were grown in RPMI 1640 medium containing 5% fetal bovine serum and 2 mM L-glutamine. The cells were then inoculated into 96 well microtiter plates in 100 μL at plating densities ranging from 5,000 to 40,000 cells/well depending on the doubling time of individual cell lines. After cell inoculation, the microtiter plates are incubated at 37° C., 5% CO2, 95% air and 100% relative humidity for 24 h prior to addition of the thiazolidinedione derivatives. […]
# Following drug addition, the plates were incubated for an additional 48 h at 37° C., 5% CO2, 95% air, and 100% relative humidity. […] Bound stain is subsequently solubilized with 10 mM trizma base, and the absorbance was read on an automated plate reader at a wavelength of 515 nm. […] Using the seven absorbance measurements [time zero, (Tz), control growth, (C), and test growth in the presence of drug at the five concentration levels (Ti)], the percentage growth is calculated at each of the drug concentrations levels. Percentage growth inhibition is calculated as: [(Ti−Tz)/(C−Tz)]×100 for concentrations for which Ti>/=Tz [(Ti−Tz)/Tz]×100 for concentrations for which Ti<Tz.
# Three dose response parameters were calculated for each experimental agent. […]
# [2] = test system: LPS-stimulated IL-6 production in THP-1 macrophages; assay: ELISA of LPS-stimulated IL-6 production in THP-1 macrophages; assay type: cell-based, human; details: for first-tier screening result (AMPK/mTOR activation status and IL-6/IL-6 receptor signaling): LPS-stimulated THP-1 macrophages; for inhibition at 10 µM: read-out: inhibition of IL-6 production
# Description: (§1) Cells and cell culture. THP-1 monocytic cells were purchased from the American Type Culture Collection (Rockville, Md.), and maintained with L-glutamine-containing RPMI 1640 supplemented with 10% fetal bovine serum (FBS), 0.25% glucose, 0.01% sodium pyruvate, 50 μM 2-mercaptoethanol, and 0.1 ml/ml penicillin/streptomycin/L-glutamine. Differentiation of THP-1 monocytes into macrophages was carried out by exposure to PMA (50 nM) in the aforementioned RPMI 1640 medium for 24 h. Colon-26 (C-26) adenocarcinoma cells were provided by a researcher at The Ohio State University. The C-26 cells were maintained in RPMI 1640 medium supplemented with 5% FBS and 1% penicillin/streptomycin.
# ELISA. IL-6 release by differentiated THP-1 macrophages in response to 10 ng/ml of LPS was analyzed by using the IL-6 ELISA kit (Cayman Chemical Co.; Ann Arbor, Mich.) according to the manufacturer's instruction in triplicate. The effect of each test compound on LPS-stimulated IL-6 release is presented as percent inhibition and was calculated using the following formula: percentage inhibition=100%×{1−[(O.D. of sample−O.D. of control)/(O.D. of LPS−O.D. of control)]}.
# [3] = test system: AMPK in C-26 colon adenocarcinoma cells; assay: Western blot of AMPK phosphorylation in C-26 cells; assay type: cell-based; details: dose- and time-dependent, 10% FBS-containing medium
# Description: as §1
# Western blotting. THP-1 cells were lysed in SDS-sample buffer after washing with iced-PBS buffer, and then heated at 95° C. for 20 minutes. Protein extracts were prepared using M-PER mammalian protein extraction reagent (Pierce, Rockford, Ill.), containing freshly added 1% phosphatase and protease inhibitor cocktails (Calbiochem). After centrifugation of lysates at 13000 g for 10 min, supernatants were collected, and the protein concentration in each sample was determined by protein assay (Bio-Rad). Protein extracts were then suspended in 2×SDS sample buffer, separated by electrophoresis in 10% SDS-polyacrylamide gels, and transferred to nitrocellulose membranes using a semidry transfer cell. […]
# AMPK = assay: Western blot of AMPK phosphorylation in LPS-treated THP-1 macrophages; assay type: cell-based, human
# Description: Western blotting. THP-1 cells were lysed in SDS-sample buffer after washing with iced-PBS buffer, and then heated at 95° C. for 20 minutes. Protein extracts were prepared using M-PER mammalian protein extraction reagent (Pierce, Rockford, Ill.), containing freshly added 1% phosphatase and protease inhibitor cocktails (Calbiochem). After centrifugation of lysates at 13000 g for 10 min, supernatants were collected, and the protein concentration in each sample was determined by protein assay (Bio-Rad). Protein extracts were then suspended in 2×SDS sample buffer, separated by electrophoresis in 10% SDS-polyacrylamide gels, and transferred to nitrocellulose membranes using a semidry transfer cell. The transblotted membrane was washed twice with Tris-buffered saline containing 0.1% Tween-20 (TBST). After blocking with TBST containing 5% nonfat milk for 1 h, the membrane was incubated with primary antibodies: p172Thr-AMPK, AMPK, p705Tyr-STAT3 and STAT3 (Cell Signaling Technology; Beverly, Mass.); p389Thr-p70S6K and p70S6K (Santa Cruz Biotechnology; Santa Cruz, Calif.), each at 1:1,000 dilution in 1% TBST-nonfat milk at 4° C. overnight. After incubation with the primary antibody, the membrane was washed three times with TBST for a total of 30 min, followed by incubation with horseradish peroxidase-conjugated goat anti-mouse IgG (diluted 1:2500) for 1 h at room temperature. […]
# THP-1 cells = assay: MTT viability of THP-1 cells; assay type: cell-based, human; details: at the concentrations used for IL-6 ELISA (dose range b224, 10 μM b226, 1 μM b229)
# [4] = test system: MCF-7 breast cancer cells; assay: MTT cell viability assay, MCF-7 cells; assay type: cell-based; details: Homo sapiens, MCF7, 72 h, 10% FBS-supplemented medium, read-out: IC50 in inhibiting the viability of MCF-7 breast cancer cells
# Description: (§3) Cell viability was determined using the 3-(4,5-dimethylthiazol-2-yl)-2,5-diphenyltetrazolium bromide) (MTT) assay. LNCaP and MCF-7 cells were seeded in 96-well plates (5000 cells/well) and incubated in their respective culture media supplemented with 10% FBS for 24 h. […] Drug-containing medium was then replaced with 1×MTT (0.5 mg/mL in RPMI 1640), followed by incubation at 37° C. for 2 h. After removal of medium, the reduced MTT dye was solubilized in 200 μL/well DMSO, and absorbances were measured at 570 nm.
# [5] = test system: LNCaP prostate cancer cells; assay: MTT cell viability assay, LNCaP cells; assay type: cell-based; details: Homo sapiens
# Description: The compounds were tested for their ability to decrease LNCaP prostate cancer cell viability as measured by the 3-(4,5-dimethylthiazol-2-yl)-2,5-diphenyltetrazolium bromide) (MTT) assay.
# as §3
# tumor xenograft = assay: Tumor xenograft growth and acute toxicity; details: in vivo
# [6] = test system: conversion of LC3-I to LC3-II in LNCaP cells; assay: GFP-LC3 conversion (autophagy) in LNCaP cells; assay type: cell-based; details: 5 μM, GFP-LC3-transfected LNCaP cells
# Description: (§2) Transfections were performed by electroporation using Nucleofector kit R of the Amaxa Nucleofector system (Amaxa Biosystems, Cologne, Germany). LNCaP cells were transfected with the following plasmids or siRNA: WT- and H363Y-Flag-Sirt1 (DN-Sirt1), WT- and K45R-Myc-AMPK (DN-AMPK), GFP-LC3, TSC2 shRNA, and DDIT3 siRNA (GADD153). […] For the fluorescent microscopic analysis, LNCaP cells transfected with the GFP-LC3 expression plasmid or with scrambled or TSC2 shRNA were treated as indicated for 36 h. After cells were fixed with 3.7% formaldehyde at room temperature for 20 min, nuclear counterstaining was performed using a 4,6-diamidino-2-phenylindole (DAPI)-containing mounting medium (Vector Laborotaries, Burlingame, Calif.) before examination. Images were observed using a Nikon microscope (Eclipse TE300).
# [7] = test system: Sirt1 gene expression in LNCaP cells; assay: Time course of Sirt1 expression in LNCaP cells (Western blot/RT-PCR); assay type: cell-based; details: OSU-CG12 10 μM, 2-DG 10 mM
# Description: Total RNA was isolated from drug-treated LNCaP cells using the RNeasy mini kit (Qiagen, Valencia, Calif.), and then reverse-transcribed to cDNA using the Omniscript RT Kit (Qiagen) according to manufacturer's instructions. PCR products were separated electrophoretically in 1% agarose gels and visualized by ethidium bromide staining.
# as §2
# [8] = test system: β-TrCP, Sp1, and androgen receptor (AR) expression in PrECs; assay: Western blot of β-TrCP, Sp1 and AR in PrECs; assay type: cell-based; details: escalating concentrations, 48 h
# [9] = test system: [3H]-2-DG uptake into LNCaP cells; assay: Glucose uptake assay ([3H]-2-DG); assay type: cell-based; details: OSU-CG12 at 5 and 10 μM, resveratrol at 50 and 100 μM, P<0.05
# Description: After washing cells with PBS, glucose uptake was initiated by addition of 1 mL of PBS containing 1 μCi/mL [^3H]-2-DG (Perkin Elmer, Waltham, Mass.) and […] nonradioactive 2-DG. After 5 min, glucose uptake was terminated by extensive washing with PBS, and cells were solubilized in 0.1% SDS buffer. Aliquots were taken for measurements of radioactivity using a scintillation counter LS6500 (Beckman).
# [10] = LNCaP, MTT, 72 h, 10% FBS-supplemented medium, read-out: IC50 in inhibiting the viability of LNCaP prostate cancer cells
smiles,measurement,setting,value
"CCC(CC)CN1C(=O)S/C(=C\c2ccc(O)c(C(F)(F)F)c2)C1=O [OSU-CG5, (Z)-3-(2-Ethyl-butyl)-5-(4-hydroxy-3-trifluoromethyl-benzylidene)-thiazolidine-2-4-dione]",antitumor potency in NCI 60 cell line screening,[1],significantly antitumor potency
"CC1(CN2C(=O)S/C(=C\c3ccc(NS(=O)(=O)c4ccc([N+](=O)[O-])c(C(F)(F)F)c4)cc3)C2=O)CCCCC1 [Compound 53, N-{4-[3-(1-Methyl-cyclohexylmethyl)-2,4-dioxo-thiazolidin-5-ylidene-methyl]-phenyl}-4-nitro-3-trifluoromethyl-benzenesulfonamide]",potency in blocking IL-6 release,"[2]; 1 μM, 6 h, LPS-stimulated THP-1",optimal agent; also recorded: highest potency
same,first-tier screening result (AMPK/mTOR activation status and IL-6/IL-6 receptor signaling),[2]; 10 μM,active
same,IC50,"[2]; Homo sapiens, THP-1, 6 h, 10% FBS-containing medium, read-out: IC50 for inhibition of LPS-stimulated IL-6 production",~1 µM
same,inhibition at 10 µM,"[2]; Homo sapiens, 10 μM, 6 h, LPS-stimulated THP-1",> 80%
same,p-AMPK level in C-26 colon adenocarcinoma cells,[3],robust increases in the p-AMPK level
same,potency in activating AMPK relative to AICAR,"AMPK; LPS-treated THP-1, 6 h, AICAR 0.5 mM",two-orders-of-magnitude higher
CC1(COc2ccc(C=C3SC(=O)NC3=O)cc2)CCCCC1 [compound 62],effect on LPS-stimulated IL-6 production,"[2]; 10 μM, 6 h, LPS-stimulated THP-1",modest activities
same,effect on viability of THP-1 cells,THP-1 cells,neither agent inhibited the viability of THP-1 cells
same,AMPK activation (p-AMPK level),"AMPK; 10 μM, 6 h, LPS-treated THP-1",effective in elevating the level of p-AMPK; also recorded: modest activities
CC1(COc2ccc(CC3SC(=O)NC3=O)cc2)CCCCC1 (stereo not shown) [ciglitazone],IC50,[4],42 µM
same,effect on viability of THP-1 cells,THP-1 cells,neither agent inhibited the viability of THP-1 cells
same,IC50,[5]; [10],70 µM
"CC1(CN2C(=O)S/C(=C\c3ccc(O)c(C(F)(F)F)c3)C2=O)CCCCC1 [OSU-CG12, (Z)-5-(4-Hydroxy-3-trifluoromethyl-benzylidene)-3-(1-methyl-cyclohexylmethy)-thiazolidine-2-4-dione]",first-tier screening result (AMPK/mTOR activation status and IL-6/IL-6 receptor signaling),[2]; 10 μM,active
same,inhibition at 10 µM,"[2]; Homo sapiens, THP-1, 6 h",> 80%
same,antitumor potency in NCI 60 cell line screening,[1],significantly antitumor potency
same,IC50,[4],5 µM
same,acute toxicity,tumor xenograft,without incurring acute toxicity
same,suppression of tumor xenograft growth,tumor xenograft,effectiveness in suppressing tumor xenograft growth
same,accumulation of LC3-II (autophagy marker),[6],time-dependent accumulation of LC3-II
same,IC50,[5]; [10],5.7 µM
same,IC50,"[5]; summary over LNCaP and MCF-7 cells, read-out: IC50 in suppressing cancer cell growth",5 µM
same,duration of transient transcriptional activation of Sirt1 gene expression,[7],1 h
same,"expression levels of β-TrCP, Sp1, and AR in PrECs",[8],unaltered expression levels
same,inhibition of glucose uptake,[9],significantly inhibit glucose uptake
